Data set [1] is described as follows: in vitro. The conditions noted are these: mouse.
The test system of data set [2] is Leishmania amazonensis promastigote forms. The data set can be described thus: Leishmanicidal MTT assay on promastigote forms. The class given is cell-based. The note with it: for IC50: Leishmania amazonensis, read-out: L. amazonensis IC50.
Data set [3] is described as follows: Macrophages in vitro cytotoxic assay (MTT). The conditions noted are these: mouse, J774A.1 macrophage cells.
Where [4] appears, read: promastigote forms, 48 h treatment, MTT.

The record followed here is PMC6271856, “Leishmanicidal Evaluation of Tetrahydroprotoberberine and Spirocyclic Erythrina-Alkaloids” (Molecules, 2014).

≈ marks a conversion by molar mass, not a printed value. Where two headings read alike, the source gives them in different places.

Consider `COc1cc2c(cc1OC)C13CC(OC)C(=O)C=C1CCN3CC2` (stereo not drawn) [Compound 9, Erythratidinone], for which, in data set [1], the CC50 was greater than 1000 µg/mL. The IC50 in data set [2] (48 h) was greater than 1000 µg/mL.
`C[C@@H]1[C@H](O)[C@@H](C)/C=C/C=C/C=C/C=C/C=C/C=C/C=C/[C@H](O[C@@H]2O[C@H](C)[C@@H](O)[C@H](N)[C@@H]2O)C[C@@H]2O[C@](O)(C[C@@H](O)C[C@@H](O)[C@H](O)CC[C@@H](O)C[C@@H](O)CC(=O)O[C@H]1C)C[C@H](O)[C@H]2C(=O)O` [Amphotericin B, reference compound]: in data set [2] (setting [4]), the IC50 stood at 0.2 µg/mL (≈ 0.216 µM).
Consider `CO[C@H]1C=CC2=CCN3CCc4cc5c(cc4[C@]23C1)OCO5` [Compound 3, erythraline], for which, in data set [1], the CC50 was 69.3 µg/mL (≈ 233 µM). Moreover, the “SI (Selectivity Index = CC50 drug/IC50 drug)” value in data set [2] worked out at 1.06. Further, in data set [2] (48 h), the IC50 was found to be 65.3 µg/mL (≈ 220 µM).
For `COc1ccc2c(c1O)[C@@H]1Cc3cc4c(cc3CN1CC2)OCO4` [Compound 1], the CC50 at 48 h in data set [3] turned out to be 51.2 µg/mL (≈ 157 µM). In data set [2] (CC50 J774 macrophages / IC50 L. amazonensis promastigotes), the “SI (Selectivity Index = CC50 drug/IC50 drug)” value stood at 284.55. For the same molecule, the 50% inhibitory concentration (IC50) in data set [2] (setting [4]) turned out to be 0.18 µg/mL (≈ 0.553 µM).
`COc1cc2c(cc1O)[C@]13C[C@@H](OC)C=CC1=CCN3CC2` [Compound 8, Erysovine] gave a CC50 in data set [1] greater than 1000 µg/mL. Also, in data set [2] (48 h), the IC50 was greater than 1000 µg/mL.
Regarding `COC1C=CC2=CC(=O)N3C=Cc4cc5c(cc4C23C1)OCO5` (stereo not drawn) [Compound 6, Crystamidine], the CC50 in data set [1] is 59 µg/mL (≈ 191 µM). In data set [2], the “SI (Selectivity Index = CC50 drug/IC50 drug)” value amounted to 0.82. In addition, in data set [2] (setting [4]), the IC50 was determined as 71.5 µg/mL (≈ 231 µM).
`COC1C=CC2=CC(=O)N3CCc4cc5c(cc4C23C1)OCO5` (stereo not drawn) [Compound 4, 8-oxoerythraline] returned a CC50 in data set [1] greater than 1000 µg/mL. In data set [2] (setting [4]), the IC50 is greater than 1000 µg/mL.
`COc1cc2c(cc1OC)CN1CCc3ccc(OC)c(O)c3[C@@H]1C2` [Compound 2] displayed a CC50 at 48 h in data set [3] of 96.6 µg/mL (≈ 283 µM). For the same molecule, the IC50 in data set [2] (setting [4]) was greater than 1000 µg/mL.
For the molecule `COC1C=CC2=CCN3CC(O)c4cc5c(cc4C23C1)OCO5` (stereo not drawn) [Compound 7, Erythrinine], the CC50 in data set [1] amounted to 60 µg/mL (≈ 191 µM). Also, the “SI (Selectivity Index = CC50 drug/IC50 drug)” value in data set [2] is given as 1.52. In addition, the IC50 in data set [2] (48 h) is 39.5 µg/mL (≈ 126 µM).
